The target of data set [1] is Cellular tumor antigen p53 (Mus musculus) (UniProt P02340). Kind of data set: Inhibition of p53-dependent transcriptional activity in tumor promotion-sensitive mouse JB6 Cl41 cells after 12 hrs by luciferase-based method. Type of data set: cell-based.
Data set [2] can be described thus: Cytotoxicity against tumor promotion-sensitive mouse JB6 Cl41 cells assessed as cell viability after 48 hrs by MTS assay. The format is cell-based. Conditions: JB6 Cl41, 48 h.
Data set [3] deals with HeLa. Kind of data set: Cytotoxicity against human HeLa cells assessed as cell viability after 48 hrs by MTS assay. Type of data set: functional, cell-based. For orientation: Tetrazolium dyes change colour on reduction, which living cells bring about.
In data set [4] the test system is HeLa. In words: Cytotoxicity against human HeLa cells assessed as inhibition of number of colonies formed in soft agar after 14 days by microscopic analysis. Type of data set: functional.
Data set [5] in a line: Cytotoxicity against tumor promotion-sensitive mouse JB6 Cl41 cells expressing luciferase reporter gene assessed as cell viability after 12 hrs by MTS assay. The format is cell-based. The note with it: jb6 cl41, 12 h. (In general: Reporter assays use an easily measured gene product as a stand-in for the process of interest.)
In data set [6] the test system is HeLa. In words: Cytotoxicity against human HeLa cells assessed as cell viability after 24 hrs by MTS assay. Type of data set: functional, cell-based.
The subject of data set [7] is HeLa. In words: Induction of p53-independent apoptosis in human HeLa cells assessed as late apoptotic/necrotic cells at 20 uM after 24 hrs by Annexin-V-FITC/propidium iodide double staining based flow cytometry (reference value: 0.88 +/- 0.72%). The format is functional. (In general: In flow cytometry, cells or beads pass a laser one at a time.)
The nature of data set [8]: Induction of apoptosis in tumor promotion-sensitive mouse JB6 Cl41 cells assessed as viable cells at 5 uM after 24 hrs by Annexin-V-FITC/propidium iodide staining based flow cytometry (reference value: 94.33 +/- 0.87%). Type of data set: cell-based. Conditions: read-out: Activity.
Data set [9] has as its system HeLa. In words: Induction of p53-independent apoptosis in human HeLa cells assessed as viable cells at 2.5 uM after 24 hrs by Annexin-V-FITC/propidium iodide double staining based flow cytometry (reference value: 88.52 +/- 11%). The format is functional. The note with it: read-out: Activity.
Data set [10] in a line: Induction of apoptosis in tumor promotion-sensitive mouse JB6 Cl41 cells assessed as dead cells at 20 uM after 24 hrs by Annexin-V-FITC/propidium iodide staining based flow cytometry (reference value: 2.99 +/- 0.82%). The format is cell-based. The note with it: jb6 cl41, 24 h.
Data set [11] relates to HeLa. Kind of data set: Induction of p53-independent apoptosis in human HeLa cells assessed as early apoptotic cells at 10 uM after 24 hrs by Annexin-V-FITC/propidium iodide double staining based flow cytometry (reference value: 6.71 +/- 4.41%). The format is functional.
The test system of data set [12] is HeLa. In words: Induction of p53-independent apoptosis in human HeLa cells assessed as viable cells at 5 uM after 24 hrs by Annexin-V-FITC/propidium iodide double staining based flow cytometry (reference value: 88.52 +/- 11%). The format is functional. The note with it: read-out: Activity.
Data set [13] in a line: Induction of apoptosis in tumor promotion-sensitive mouse JB6 Cl41 cells assessed as early apoptotic cells at 10 uM after 24 hrs by Annexin-V-FITC/propidium iodide staining based flow cytometry (reference value: 2.15 +/- 1.18%). The note with it: jb6 cl41, 24 h. The format is cell-based.
Data set [14] has as its system HeLa. Kind of data set: Ratio of IC50 to INCC50 for human HeLa cells. The format is functional.
The nature of data set [15]: Induction of apoptosis in tumor promotion-sensitive mouse JB6 Cl41 cells assessed as viable cells at 2.5 uM after 24 hrs by Annexin-V-FITC/propidium iodide staining based flow cytometry (reference value: 94.33 +/- 0.87%). Type of data set: cell-based. Conditions: read-out: Activity.
Data set [16] concerns HeLa. In words: Induction of p53-independent apoptosis in human HeLa cells assessed as late apoptotic/necrotic cells at 5 uM after 24 hrs by Annexin-V-FITC/propidium iodide double staining based flow cytometry (reference value: 0.88 +/- 0.72%). The format is functional.
Data set [17] in a line: Induction of apoptosis in tumor promotion-sensitive mouse JB6 Cl41 cells assessed as early apoptotic cells at 5 uM after 24 hrs by Annexin-V-FITC/propidium iodide staining based flow cytometry (reference value: 2.15 +/- 1.18%). Type of data set: cell-based. The note with it: jb6 cl41, 24 h.
Data set [18] in a line: Induction of apoptosis in tumor promotion-sensitive mouse JB6 Cl41 cells assessed as viable cells at 10 uM after 24 hrs by Annexin-V-FITC/propidium iodide staining based flow cytometry (reference value: 94.33 +/- 0.87%). The format is cell-based. Conditions: read-out: Activity.
A short description of data set [19]: Induction of apoptosis in tumor promotion-sensitive mouse JB6 Cl41 cells assessed as early apoptotic cells at 20 uM after 24 hrs by Annexin-V-FITC/propidium iodide staining based flow cytometry (reference value: 2.15 +/- 1.18%). Conditions: jb6 cl41, 24 h. The format is cell-based.
For data set [20], the system named is HeLa. Kind of data set: Induction of p53-independent apoptosis in human HeLa cells assessed as dead cells at 2.5 uM after 24 hrs by Annexin-V-FITC/propidium iodide double staining based flow cytometry (reference value: 3.89 +/- 0.3%). Type of data set: functional.
Data set [21] deals with HeLa. In words: Induction of p53-independent apoptosis in human HeLa cells assessed as dead cells at 20 uM after 24 hrs by Annexin-V-FITC/propidium iodide double staining based flow cytometry (reference value: 3.89 +/- 0.3%). The format is functional.
The subject of data set [22] is HeLa. In words: Induction of p53-independent apoptosis in human HeLa cells assessed as viable cells at 10 uM after 24 hrs by Annexin-V-FITC/propidium iodide double staining based flow cytometry (reference value: 88.52 +/- 11%). Conditions: read-out: Activity. The format is functional.
Data set [23] has as its system HeLa. Kind of data set: Induction of p53-independent apoptosis in human HeLa cells assessed as dead cells at 10 uM after 24 hrs by Annexin-V-FITC/propidium iodide double staining based flow cytometry (reference value: 3.89 +/- 0.3%). The format is functional.
The nature of data set [24]: Induction of apoptosis in tumor promotion-sensitive mouse JB6 Cl41 cells assessed as early apoptotic cells at 2.5 uM after 24 hrs by Annexin-V-FITC/propidium iodide staining based flow cytometry (reference value: 2.15 +/- 1.18%). The note with it: jb6 cl41, 24 h. Type of data set: cell-based.
A short description of data set [25]: Induction of apoptosis in tumor promotion-sensitive mouse JB6 Cl41 cells assessed as dead cells at 10 uM after 24 hrs by Annexin-V-FITC/propidium iodide staining based flow cytometry (reference value: 2.99 +/- 0.82%). The format is cell-based. Conditions: jb6 cl41, 24 h.
In data set [26] the test system is HeLa. Kind of data set: Induction of p53-independent apoptosis in human HeLa cells assessed as viable cells at 20 uM after 24 hrs by Annexin-V-FITC/propidium iodide double staining based flow cytometry (reference value: 88.52 +/- 11%). The format is functional. The note with it: read-out: Activity.
Data set [27] is described as follows: Induction of apoptosis in tumor promotion-sensitive mouse JB6 Cl41 cells assessed as late apoptotic/necrotic cells at 5 uM after 24 hrs by Annexin-V-FITC/propidium iodide staining based flow cytometry (reference value: 0.53 +/- 0.47%). Type of data set: cell-based. Conditions: jb6 cl41, 24 h.
The test system of data set [28] is HeLa. Kind of data set: Induction of p53-independent apoptosis in human HeLa cells assessed as early apoptotic cells at 2.5 uM after 24 hrs by Annexin-V-FITC/propidium iodide double staining based flow cytometry (reference value: 6.71 +/- 4.41%). The format is functional.
In data set [29] the test system is HeLa. In words: Induction of p53-independent apoptosis in human HeLa cells assessed as late apoptotic/necrotic cells at 10 uM after 24 hrs by Annexin-V-FITC/propidium iodide double staining based flow cytometry (reference value: 0.88 +/- 0.72%). Type of data set: functional.
The test system of data set [30] is HeLa. Kind of data set: Induction of p53-independent apoptosis in human HeLa cells assessed as late apoptotic/necrotic cells at 2.5 uM after 24 hrs by Annexin-V-FITC/propidium iodide double staining based flow cytometry (reference value: 0.88 +/- 0.72%). Type of data set: functional.
Data set [31] deals with HeLa. Kind of data set: Induction of p53-independent apoptosis in human HeLa cells assessed as dead cells at 5 uM after 24 hrs by Annexin-V-FITC/propidium iodide double staining based flow cytometry (reference value: 3.89 +/- 0.3%). Type of data set: functional.
The nature of data set [32]: Induction of apoptosis in tumor promotion-sensitive mouse JB6 Cl41 cells assessed as dead cells at 5 uM after 24 hrs by Annexin-V-FITC/propidium iodide staining based flow cytometry (reference value: 2.99 +/- 0.82%). The format is cell-based. The note with it: jb6 cl41, 24 h.
Data set [33] can be described thus: Induction of apoptosis in tumor promotion-sensitive mouse JB6 Cl41 cells assessed as late apoptotic/necrotic cells at 20 uM after 24 hrs by Annexin-V-FITC/propidium iodide staining based flow cytometry (reference value: 0.53 +/- 0.47%). The format is cell-based. The note with it: jb6 cl41, 24 h.
Data set [34] has as its system HeLa. In words: Induction of p53-independent apoptosis in human HeLa cells assessed as early apoptotic cells at 5 uM after 24 hrs by Annexin-V-FITC/propidium iodide double staining based flow cytometry (reference value: 6.71 +/- 4.41%). The format is functional.
Data set [35] relates to HeLa. Kind of data set: Induction of p53-independent apoptosis in human HeLa cells assessed as early apoptotic cells at 20 uM after 24 hrs by Annexin-V-FITC/propidium iodide double staining based flow cytometry (reference value: 6.71 +/- 4.41%). Type of data set: functional.
Data set [36] is described as follows: Induction of apoptosis in tumor promotion-sensitive mouse JB6 Cl41 cells assessed as dead cells at 2.5 uM after 24 hrs by Annexin-V-FITC/propidium iodide staining based flow cytometry (reference value: 2.99 +/- 0.82%). The note with it: jb6 cl41, 24 h. The format is cell-based.
Data set [37] in a line: Induction of apoptosis in tumor promotion-sensitive mouse JB6 Cl41 cells assessed as late apoptotic/necrotic cells at 2.5 uM after 24 hrs by Annexin-V-FITC/propidium iodide staining based flow cytometry (reference value: 0.53 +/- 0.47%). The format is cell-based. Conditions: jb6 cl41, 24 h.
A short description of data set [38]: Induction of apoptosis in tumor promotion-sensitive mouse JB6 Cl41 cells assessed as viable cells at 20 uM after 24 hrs by Annexin-V-FITC/propidium iodide staining based flow cytometry (reference value: 94.33 +/- 0.87%). The format is cell-based. The note with it: read-out: Activity.
The nature of data set [39]: Induction of apoptosis in tumor promotion-sensitive mouse JB6 Cl41 cells assessed as late apoptotic/necrotic cells at 10 uM after 24 hrs by Annexin-V-FITC/propidium iodide staining based flow cytometry (reference value: 0.53 +/- 0.47%). The format is cell-based. Conditions: jb6 cl41, 24 h.

Active and inactive are the calls of the source. No cut-off for these calls is given here.

Chain of Cellular tumor antigen p53 (Mus musculus) (P02340 whole entry): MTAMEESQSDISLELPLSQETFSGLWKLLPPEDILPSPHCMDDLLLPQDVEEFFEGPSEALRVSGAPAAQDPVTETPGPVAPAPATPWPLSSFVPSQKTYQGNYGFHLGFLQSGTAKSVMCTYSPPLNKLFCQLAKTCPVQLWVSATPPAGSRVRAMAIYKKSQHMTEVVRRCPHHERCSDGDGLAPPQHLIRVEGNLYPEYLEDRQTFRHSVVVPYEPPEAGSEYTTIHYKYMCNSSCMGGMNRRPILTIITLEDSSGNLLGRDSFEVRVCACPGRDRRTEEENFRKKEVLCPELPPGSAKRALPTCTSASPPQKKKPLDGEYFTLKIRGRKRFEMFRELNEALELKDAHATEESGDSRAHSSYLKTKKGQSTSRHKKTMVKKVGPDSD

As to `CO[C@H]1O[C@H](CO)[C@@H](O)[C@H](O)[C@H]1O`, the inhibition result in [1] was “inactive”. The IC50 (in [2]; in the data set on HeLa [3]; in the data set on HeLa [6]) was more than 200 µM throughout. For the same compound, the INCC50 in the data set with HeLa [4] is more than 200 µM. In addition, the Activity entry in data set [5] is on record as “Non-toxic”.
As for `CO[C@H]1O[C@H](COC2=CC(=O)c3c(O)ccc(O)c3C2=O)[C@@H](O)[C@H](O)[C@H]1O`, the inhibition entry in data set [1] was “Active”. Also, the Activity in the data set with HeLa [7] is 24.44%; in data set [10], 31.75%; in the data set on HeLa [11], 7.99%; in [13], 7.41%; in the data set with HeLa [16], 1.35%; in data set [17] it was 1.8%. Further, the Activity is 40.96% in data set [19]; 2.8% in the data set on HeLa [20]; 31.42% in the data set with HeLa [21]; 2.77% with HeLa [23]; 1.84% in [24]; 3.17% in data set [25]. In addition, the Activity is 2.96% in [27]; 8.28% in the data set on HeLa [28]; 1.74% in the data set with HeLa [29]; 1.55% in the data set on HeLa [30]; 2.67% with HeLa [31]; 0.4% in data set [32]. The Activity in [33] was 13.91%; with HeLa [34], 6.44%; with HeLa [35] it was 14.06%; in [36] it was 2.99%; in data set [37] it was 2.46%; in data set [39], 1.91%. Besides, the viability at 24 h, 5 µM in data set [8] stood at 88.8%. Also, the IC50 – broadly, the concentration at which inhibition is half-maximal – came to 8.47 µM in data set [2], 7.89 µM in the data set on HeLa [3] and 7.54 µM in the data set on HeLa [6]. Also, the viability at 2.5 µM in the data set on HeLa [9] came to 87.4%. Moreover, in the data set with HeLa [12], the viability at 5 µM stood at 89.5%. In addition, the Ratio with HeLa [14] is reported as 1.96. Further, the viability at 24 h, 2.5 µM in data set [15] turned out to be 91.7%. Further, in the data set with HeLa [4], the INCC50 came out at 4.03 µM. Further, the viability at 24 h, 10 µM in data set [18] came to 87.5%. In addition, the viability at 10 µM in the data set on HeLa [22] worked out at 87.5%. In the data set with HeLa [26], the viability at 20 µM is 30.1%. Also, the viability at 24 h, 20 µM in data set [38] worked out at 13.4%.

The values above are taken from ChEMBL document CHEMBL3232964, “Quinone-carbohydrate nonglucoside conjugates as a new type of cytotoxic agents: synthesis and determination of in vitro activity” (Eur J Med Chem, 2014).
